Results taken from patent US7960377B2 (priority 2008, dated 2011).

Experiments:
rat CB2 receptor = biological target: T1, rat CB2 receptor (Rattus norvegicus, UniProt Q9QZN9); assay: cell-based; assay type: cell-based
T1 sequence (Q9QZN9 1-360): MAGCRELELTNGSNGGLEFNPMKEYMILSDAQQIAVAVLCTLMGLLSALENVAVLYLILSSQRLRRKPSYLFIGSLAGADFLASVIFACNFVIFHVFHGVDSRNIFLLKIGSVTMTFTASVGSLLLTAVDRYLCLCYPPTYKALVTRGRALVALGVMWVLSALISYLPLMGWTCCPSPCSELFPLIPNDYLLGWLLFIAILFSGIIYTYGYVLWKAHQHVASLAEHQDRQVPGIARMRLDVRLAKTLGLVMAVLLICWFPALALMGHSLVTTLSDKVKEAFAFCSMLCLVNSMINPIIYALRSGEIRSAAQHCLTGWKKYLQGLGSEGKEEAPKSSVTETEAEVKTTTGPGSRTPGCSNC

human CB1 receptor = human CB1 receptor (Homo sapiens, UniProt P21554); assay: cell-based
Chain of human CB1 receptor (P21554 whole entry): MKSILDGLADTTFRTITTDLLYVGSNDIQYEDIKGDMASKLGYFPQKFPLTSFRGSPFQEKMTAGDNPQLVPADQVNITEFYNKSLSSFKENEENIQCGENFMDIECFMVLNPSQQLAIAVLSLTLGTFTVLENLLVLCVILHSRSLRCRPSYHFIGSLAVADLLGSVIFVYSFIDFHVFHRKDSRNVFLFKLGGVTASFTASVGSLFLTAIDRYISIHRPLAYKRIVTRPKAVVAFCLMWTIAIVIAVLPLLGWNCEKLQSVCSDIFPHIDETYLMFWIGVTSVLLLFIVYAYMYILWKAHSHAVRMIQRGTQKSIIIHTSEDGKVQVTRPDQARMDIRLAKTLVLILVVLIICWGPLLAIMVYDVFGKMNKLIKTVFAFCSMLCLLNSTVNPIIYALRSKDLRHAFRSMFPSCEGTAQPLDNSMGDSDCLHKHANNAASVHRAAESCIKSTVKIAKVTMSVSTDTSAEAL

| SMILES | EC50 (rat CB2 receptor) [nM] | EC50 (human CB1 receptor) [nM] | inverse agonist mark, rat CB2 receptor (rat CB2 receptor; asterisk at the compound number) |
| --- | --- | --- | --- |
| COCC1CCCCN1C(=O)c1cnc2c(c1)N(S(=O)(=O)c1ccc(C(F)(F)F)cc1)CCO2 (racemic) [Example 74, +/− (2-(methoxymethyl)-piperidin-1-yl)(1-(4-(trifluoromethyl)phenylsulf-onyl)-2,3-dihydro-1H-pyrido[2,3-b][1,4]oxazin-7-yl)methanone] | ≤ 30 | > 30000 |  |
| COCCCNC(=O)c1cnc2c(c1)N(S(=O)(=O)c1ccc(F)cc1)CCO2 [Example 12] | ≤ 30 | > 30000 |  |
| CC(C)(C)NC(=O)c1cnc2c(c1)N(S(=O)(=O)c1cccc(F)c1)CCO2 [Example 20, N-tert-butyl-1-(3-fluorophenylsulfonyl)-2,3-dihydro-1H-pyrido[2,3-b][1,4]oxazine-7-carboxamide] | ≤ 30 | > 30000 |  |
| O=C(NC1CCCC1)c1cnc2c(c1)N(S(=O)(=O)c1cccc(F)c1)CCO2 [Example 21, N-cyclopentyl-1-(3-fluorophenylsulfonyl)-2,3-dihydro-1H-pyrido[2,3-b][1,4]oxazine-7-carboxamide] | ≤ 30 | > 30000 |  |
| CC(C)(C)NC(=O)c1cnc2c(c1)N(S(=O)(=O)c1ccccc1F)CCO2 [Example 22, N-tert-butyl-1-(2-fluorophenylsulfonyl)-2,3-dihydro-1H-pyrido[2,3-b][1,4]oxazine-7-carboxamide] | ≤ 30 | > 30000 |  |
| O=C(NC1CCCC1)c1cnc2c(c1)N(S(=O)(=O)c1ccccc1F)CCO2 [Example 23, N-cyclopentyl-1-(2-fluorophenylsulfonyl)-2,3-dihydro-1H-pyrido[2,3-b][1,4]oxazine-7-carboxamide] | ≤ 30 | > 30000 |  |
| CC(C)(C)NC(=O)c1cnc2c(c1)N(S(=O)(=O)c1ccc(C(F)(F)F)cc1)CCO2 [Example 26, N-tert-butyl-1-(4-(trifluoromethyl)phenylsulf-onyl)-2,3-dihydro-1H-pyrido[2,3-b][1,4]oxazine-7-carboxamide] | ≤ 30 | > 30000 |  |
| O=C(NC1CCCC1)c1cnc2c(c1)N(S(=O)(=O)c1ccc(C(F)(F)F)cc1)CCO2 [Example 27, N-cyclopentyl-1-(4-(trifluoromethyl)phenylsulf-onyl)-2,3-dihydro-1H-pyrido[2,3-b][1,4]oxazine-7-carboxamide] | ≤ 30 | > 30000 |  |
| O=C(NCC1CC1)c1cnc2c(c1)N(S(=O)(=O)c1ccc(Cl)cc1)CCO2 [Example 33, 1-(4-chlorophenyl-sulfonyl)-N-(cyclopropyl-methyl)-2,3-dihydro-1H-pyrido[2,3-b][1,4]oxazine-7-carboxamide] | ≤ 30 | > 30000 |  |
| CN(C(=O)c1cnc2c(c1)N(S(=O)(=O)c1ccc(C(F)(F)F)cc1)CCO2)C(C)(C)C [Example 40, N-tert-butyl-N-methyl-1-(4-(trifluoromethyl)-phenylsulfonyl)-2,3-dihydro-1H-pyrido[2,3-b][1,4]oxazine-7-carboxamide] | ≤ 30 | > 30000 |  |
| CC1(C)COCN1C(=O)c1cnc2c(c1)N(S(=O)(=O)c1ccc(Cl)c(Cl)c1)CCO2 [Example 124, (1-(3,4-dichlorophenyl-sulfonyl)-2,3-dihydro-1H-pyrido[2,3-b][1,4]oxazin-7-yl)(4,4-dimethyl-oxazolidin-3-yl)methanone] | ≤ 30 |  |  |
| CC(C)(CO)CNC(=O)c1cnc2c(c1)N(S(=O)(=O)c1ccc(Cl)c(Cl)c1)CCO2 [Example 131, 1-(3,4-dichlorophenyl-sulfonyl)-N-(3-hydroxy-2,2-dimethylpropyl)-2,3-dihydro-1H-pyrido[2,3-b][1,4]oxazine-7-carboxamide] | ≤ 30 |  |  |
| O=C(N[C@H]1CCC[C@H]1O)c1cnc2c(c1)N(S(=O)(=O)c1ccc(Cl)c(Cl)c1)CCO2 [Example 132, 1-(3,4-dichlorophenyl-sulfonyl)-N-((1S,2R)-2-hydroxycyclopentyl)-2,3-dihydro-1H-pyrido[2,3-b][1,4]oxazine-7-carboxamide] | ≤ 30 |  |  |
| COC(=O)C(C)(C)NC(=O)c1cnc2c(c1)N(S(=O)(=O)c1ccc(Cl)c(Cl)c1)CCO2 [Example 136, methyl 2-(1-(3,4-dichlorophenylsulfonyl)-2,3-dihydro-1H-pyrido[2,3-b][1,4]oxazine-7-carboxamido)-2-methylpropanoate] | ≤ 30 |  |  |
| CCC(C)(C)NC(=O)c1cnc2c(c1)N(S(=O)(=O)N1CCOCC1)CCO2 [Example 142, 1-(morpholinosulfonyl)-N-tert-pentyl-2,3-dihydro-1H-pyrido[2,3-b][1,4]oxazine-7-carboxamide] | ≤ 30 |  |  |
| CC(C)(C)NC(=O)c1cnc2c(c1)N(S(=O)(=O)N1CCCC1)CCO2 [Example 148, N-tert-butyl-1-(pyrrolidin-1-ylsulfonyl)-2,3-dihydro-1H-pyrido[2,3-b][1,4]oxazine-7-carboxamide] | ≤ 30 |  |  |

| SMILES | EC50 (rat CB2 receptor) [nM] | EC50 (human CB1 receptor) [nM] | inverse agonist mark, rat CB2 receptor (rat CB2 receptor; asterisk at the compound number) |
| --- | --- | --- | --- |
| CC(C)(CO)NC(=O)c1cnc2c(c1)N(S(=O)(=O)N1CCCC1)CCO2 [Example 149, N-(1-hydroxy-2-methylpropan-2-yl)-1-(pyrrolidin-1-ylsulfonyl)-2,3-dihydro-1H-pyrido[2,3-b][1,4]oxazine-7-carboxamide] | ≤ 30 |  |  |
| CC(C)(C)NC(=O)c1cnc2c(c1)N(S(=O)(=O)N1CCC(C(F)(F)F)CC1)CCO2 [Example 150, N-tert-butyl-1-(4-(trifluoromethyl)piperidin-1-ylsulfonyl)-2,3-dihydro-1H-pyrido[2,3-b][1,4]oxazine-7-carboxamide] | ≤ 30 |  |  |
| CC(C)(CO)NC(=O)c1cnc2c(c1)N(S(=O)(=O)N1CCC(C(F)(F)F)CC1)CCO2 [Example 152, N-(1-hydroxy-2-methylpropan-2-yl)-1-(4-(trifluoromethyl)piperidin-1-ylsulfonyl)-2,3-dihydro-1H-pyrido[2,3-b][1,4]oxazine-7-carboxamide] | ≤ 30 |  |  |
| CC(C)(CO)CNC(=O)c1cnc2c(c1)N(S(=O)(=O)N1CCC(C(F)(F)F)CC1)CCO2 [Example 155, N-(3-hydroxy-2,2-dimethylpropyl)-1-(4-(trifluoromethyl)piperidin-1-ylsulfonyl)-2,3-dihydro-1H-pyrido[2,3-b][1,4]oxazine-7-carboxamide] | ≤ 30 |  |  |
| CC(C)(CO)NC(=O)c1cnc2c(c1)N(S(=O)(=O)N1CCC(F)(F)CC1)CCO2 [Example 157, 1-(4,4-difluoropiperidin-1-ylsulfonyl)-N-(1-hydroxy-2-methylpropan-2-yl)-2,3-dihydro-1H-pyrido[2,3-b][1,4]oxazine-7-carboxamide] | ≤ 30 |  |  |
| CC(C)(C)NC(=O)c1cnc2c(c1)N(S(=O)(=O)N1CCC(F)(F)C1)CCO2 [Example 163, N-tert-butyl-1-(3,3-difluoropyrrolidin-1-ylsulfonyl)-2,3-dihydro-1H-pyrido[2,3-b][1,4]oxazine-7-carboxamide] | ≤ 30 |  |  |
| CCC(C)(C)NC(=O)c1cnc2c(c1)N(S(=O)(=O)N1CCC(F)(F)C1)CCO2 [Example 164, 1-(3,3-difluoropyrrolidin-1-ylsulfonyl)-N-tert-pentyl-2,3-dihydro-1H-pyrido[2,3-b][1,4]oxazine-7-carboxamide] | ≤ 30 |  |  |
| CC(C)(CO)NC(=O)c1cnc2c(c1)N(S(=O)(=O)N1CCC(F)CC1)CCO2 [Example 168, 1-(4-fluoropiperidin-1-ylsulfonyl)-N-(1-hydroxy-2-methylpropan-2-yl)-2,3-dihydro-1H-pyrido[2,3-b][1,4]oxazine-7-carboxamide] | ≤ 30 |  |  |
| CC1CCN(S(=O)(=O)N2CCOc3ncc(C(=O)NCC(C)(C)CO)cc32)CC1 [Example 173, N-(3-hydroxy-2,2-dimethylpropyl)-1-(4-methylpiperidin-1-ylsulfonyl)-2,3-dihydro-1H-pyrido[2,3-b][1,4] oxazine-7-carboxamide] | ≤ 30 |  |  |
| CC(C)(C)NC(=O)c1cnc2c(c1)N(S(=O)(=O)N1Cc3ccccc3C1)CCO2 [Example 183, N-tert-butyl-1-(isoindolin-2-ylsulfonyl)-2,3-dihydro-1H-pyrido[2,3-b][1,4]oxazine-7-carboxamide] | ≤ 30 |  |  |
| COC(=O)C1(NC(=O)c2cnc3c(c2)N(S(=O)(=O)c2ccc(Cl)c(Cl)c2)CCO3)CCOCC1 [Example 205, methyl 4-(1-(3,4-dichlorophenylsulfonyl)-2,3-dihydro-1H-pyrido[2,3-b][1,4]oxazine-7-carboxamido)tetrahydro-2H-pyran-4-carboxylate] | ≤ 30 |  |  |
| CC(C)(C)NC(=O)c1noc(-c2cnc3c(c2)N(S(=O)(=O)c2ccc(F)cc2)CCO3)n1 [Example 214, N-tert-butyl-5-(1-(4-fluoro-phenylsulfonyl)-2,3-dihydro-1H-pyrido[2,3-b][1,4]oxazin-7-yl)-1,2,4-oxadiazole-3-carboxamide] |  |  | 181, 188, 189, 190, 195, 200, 201, 202, 204, 211*, 214*, 220, 221, |
| COCCCNC(=O)c1noc(-c2cnc3c(c2)N(S(=O)(=O)c2ccc(F)cc2)CCO3)n1 [Example 216, 5-(1-(4-fluorophenylsulfonyl)-2,3-dihydro-1H-pyrido[2,3-b] [1,4]oxazin-7-yl)-N-(3-methoxypropyl)-1,2,4-oxadiazole-3-carboxamide] | ≤ 30 |  |  |
| O=S(=O)(c1ccc(F)cc1)N1CCOc2ncc(-c3nc4ncccc4o3)cc21 [Example 217] | ≤ 30 |  |  |
| O=S(=O)(c1ccc(C(F)(F)F)cc1)N1CCOc2ncc(-c3ncc(-c4ccccc4)o3)cc21 [Example 227, 7-(5-phenyloxazol-2-yl)-1-(4-(trifluoromethyl)phenyl-sulfonyl)-2,3-dihydro-1H-pyrido[2,3-b][1,4]oxazine] | ≤ 30 |  |  |
